This passage reports melting point results from patent US6855710B2, “Substituted indolines with an inhibitory effect on various kinases and complexes of CDKs” (Boehringer Ingelheim Pharma KG, priority 1998, dated 2005).

A value given as a limit tells only on which side of the number the result lay.

The compound `CN(C)CCCNS(=O)(=O)c1ccc(N/C(=C2\C(=O)Nc3ccc([N+](=O)[O-])cc32)c2ccccc2)cc1` [Example 403, (Z)-3-{1-[4-(3-dimethylamino-propylaminosulphonyl)-phenylamino]-1-phenyl-methylidene}-5-nitro-2-indolinone] had a melting point of 268 to 269 °C.
For the compound `O=C(O)CNS(=O)(=O)c1ccc(N/C(=C2\C(=O)Nc3ccccc32)c2ccccc2)cc1` [Example 407, (Z)-3-{1-[4-(carboxymethylaminosulphonyl)-phenylamino]-1-phenyl-methylidene}-2-indolinone], the melting point was 236 °C (dec.).
The same measure for `CN(Cc1ccc(N/C(=C2\C(=O)Nc3ccc([N+](=O)[O-])cc32)c2ccccc2)cc1)c1ncccn1` [Example 272, (Z)-3-{1-[4-((N-methyl-N-pyrimidin-2-yl-amino)-methyl)-phenylamino]-1-phenyl-methylidene}-5-nitro-2-indolinone]: 236 to 239 °C; for `COCCNCc1ccc(N/C(=C2\C(=O)Nc3ccc([N+](=O)[O-])cc32)c2ccccc2)cc1` [Example 174, (Z)-3-{1-[4-(2-methoxyethylaminomethyl)-phenylamino]-1-phenyl-methylidene}-5-nitro-2-indolinone]: 184 to 185 °C; for `CC(=O)NCc1ccc(/C(Nc2cccc(N(CCN(C)C)S(C)(=O)=O)c2)=C2/C(=O)Nc3ccccc32)cc1` [Example 423, (Z)-3-{1-[3-(N-(2-dimethylaminoethyl)-N-methylsulphonyl-amino)-phenylamino]-1-(4-acetylaminomethyl-phenyl)-methylidene}-2-indolinone]: 180 °C.
The same measure for `O=C(CN1CCOCC1)NCc1ccc(N/C(=C2\C(=O)Nc3ccc([N+](=O)[O-])cc32)c2ccccc2)cc1` [Example 141, (Z)-3-[1-(4-morpholinomethylcarbonylaminomethyl-phenylamino)-1-phenyl-methylidene]-5-nitro-2-indolinone]: 290 to 295 °C; for `CC(=O)O.N=C(N)c1ccc(N/C(=C2\C(=O)Nc3ccccc32)c2ccccc2)cc1` [Example 62, (Z)-3-{1-[N-(4-amidinophenyl)-amino]-1-phenyl-methylidene}-2-indolinone-hydroacetate]: > 260 °C (dec.).
The compound `CN(C)C(=O)CN(C)S(=O)(=O)c1ccc(N/C(=C2\C(=O)Nc3ccc([N+](=O)[O-])cc32)c2ccccc2)cc1` [Example 415, (Z)-3-{1-[4-(N-dimethylaminocarbonylmethyl-N-methyl-aminosulphonyl)-phenylamino]-1-phenyl-methylidene}-5-nitro-2-indolinone] registered a melting point of 277 to 278 °C.
The same measure for `NCc1ccc(/C(Nc2ccccc2)=C2/C(=O)Nc3ccc([N+](=O)[O-])cc32)cc1` [Example 154, (Z)-3-[1-phenylamino-1-(4-aminomethyl-phenyl)-methylidene]-5-nitro-2-indolinone]: 332 °C (dec.); for `CN(C)CCCN(C)S(=O)(=O)c1ccc(N/C(=C2\C(=O)Nc3ccc([N+](=O)[O-])cc32)c2ccccc2)cc1` [Example 404, (Z)-3-{1-[4-(N-(3-dimethylaminopropyl)-N-methyl-aminosulphonyl)-phenylamino]-1-phenyl-methylidene}-5-nitro-2-indolinone]: 269 to 270 °C (dec.).
The same measure for `CN(C)CCNC(=O)CN(c1ccc(N/C(=C2\C(=O)Nc3ccccc32)c2ccccc2)cc1)S(C)(=O)=O` [Example 194, (Z)-3-{1-[4-(N-(2-dimethylamino-ethylaminocarbonylmethyl)-N-methylsulphonyl-amino)-phenylamino]-1-phenyl-methylidene}-2-indolinone]: 214 to 216 °C; for `CC1CCN(CCc2ccc(N/C(=C3\C(=O)Nc4ccc([N+](=O)[O-])cc43)c3ccccc3)cc2)CC1` [Example 259, (Z)-3-{1-[4-(2-(4-methylpiperidino)-ethyl)-phenylamino]-1-phenyl-methylidene}-5-nitro-2-indolinone]: 252 to 253 °C.
The compound `CCC(=O)N(CCN1CCOCC1)c1ccc(N/C(=C2\C(=O)Nc3ccccc32)c2ccccc2)cc1` [Example 349, (Z)-3-{1-[4-(N-(2-morpholinoethyl)-N-propionyl-amino)-phenylamino]-1-phenyl-methylidene}-2-indolinone] displayed a melting point of 228 °C.
Turning to `O=C1Nc2ccccc2/C1=C(/Nc1ccc(C(=O)N2CCCC2)cc1)c1ccccc1` [Example 386, (Z)-3-{1-[4-(pyrrolidin-1-ylcarbonyl)-phenylamino]-1-phenyl-methylidene}-2-indolinone], the melting point lay within 127 to 129 °C.
The same measure for `CN(Cc1ccc(N/C(=C2\C(=O)Nc3ccc([N+](=O)[O-])cc32)c2ccccc2)cc1)C1CC1` [Example 275, (Z)-3-{1-[4-((N-cyclopropyl-N-methyl-amino)-methyl)-phenylamino]-1-phenyl-methylidene}-5-nitro-2-indolinone]: 216 to 217 °C; for `CCOC(=O)c1cccc(N/C(=C2\C(=O)Nc3ccccc32)c2ccccc2)c1` [Example 14, (Z)-3-[1-(3-ethoxycarbonyl-phenylamino)-1-phenyl-methylidene]-2-indolinone]: 194 to 195 °C.
To `O=C1Nc2ccc([N+](=O)[O-])cc2/C1=C(/Nc1ccc(Br)cc1)c1ccc(Cn2ccnc2)cc1` [Example 438, (Z)-3-{1-[4-Bromophenylamino]-1-[4-(imidazol-1-ylmethyl)-phenyl]-methylidene}-5-nitro-2-indolinone] belongs 260 to 265 °C; to `CNC(=O)C1CCN(Cc2ccc(N/C(=C3\C(=O)Nc4ccc([N+](=O)[O-])cc43)c3ccccc3)cc2)CC1` [Example 248, (Z)-3-{1-[4-(4-methylaminocarbonyl-piperidinomethyl)-phenylamino]-1-phenyl-methylidene}-5-nitro-2-indolinone], 263 to 265 °C.
`CCNCCc1ccc(N/C(=C2\C(=O)Nc3ccc([N+](=O)[O-])cc32)c2ccccc2)cc1` [Example 255, (Z)-3-{1-[4-(2-ethylamino-ethyl)-phenylamino]-1-phenyl-methylidene}-5-nitro-2-indolinone] gave a melting point of 235 to 237 °C.
As for `NC(CCO)(CCO)c1ccc(N/C(=C2\C(=O)Nc3ccc([N+](=O)[O-])cc32)c2ccccc2)cc1` [Example 240, (Z)-3-{1-[4-(Bis-(2-hydroxyethyl)-aminomethyl)-phenylamino]-1-phenyl-methylidene}-5-nitro-2-indolinone], the melting point was 196 to 198 °C.
On to `CN(C(=O)CCN)c1ccc(N/C(=C2\C(=O)Nc3ccccc32)c2ccccc2)cc1.Cl`, for which the melting point was 97 to 99 °C.
The same measure for `CCC(=O)N(CCN(C)C)c1ccc(N/C(=C2\C(=O)Nc3ccccc32)c2ccccc2)cc1` [Example 341, (Z)-3-{1-[4-(N-(2-dimethylaminoethyl)-N-propionyl-amino)-phenylamino]-1-phenyl-methylidene}-2-indolinone]: 272 to 274 °C.
`CC1CCN(Cc2ccc(N/C(=C3\C(=O)Nc4ccc([N+](=O)[O-])cc43)c3ccccc3)cc2)CC1` [Example 169, (Z)-3-{1-[4-(4-methylpiperidinomethyl)-phenylamino]-1-phenyl-methylidene}-5-nitro-2-indolinone] yielded a melting point of 161 °C.
Compound `Cc1cccc(N/C(=C2\C(=O)Nc3ccccc32)c2ccccc2)c1` [Example 6, (Z)-3-[1-(3-methyl-phenylamino)-1-phenyl-methylidene]-2-indolinone] registered a melting point of 218 to 220 °C.
The same measure for `CN(C)CCNc1ccc(N/C(=C2\C(=O)Nc3ccccc32)c2ccccc2)cc1` [Example 338, (Z)-3-{1-[4-(2-dimethylamino-ethylamino)-phenylamino]-1-phenyl-methylidene}-2-indolinone]: 258 to 260 °C.
The same measure for `CN(C)CCN(C)C(=O)CN(c1ccc(N/C(=C2\C(=O)Nc3ccc([N+](=O)[O-])cc32)c2ccccc2)cc1)S(C)(=O)=O` [Example 294, (Z)-3-{1-[4-(N—((N-(2-dimethylaminoethyl)-N-methyl-amino)-carbonylmethyl)-N-methylsulphonyl-amino)-phenylamino]-1-phenyl-methylidene}-5-nitro-2-indolinone]: 138 to 140 °C; for `CN(C)CCCN(c1cccc(N/C(=C2\C(=O)Nc3ccccc32)c2ccc(CN)cc2)c1)S(C)(=O)=O` [Example 424, (Z)-3-{1-[3-(N-(3-dimethylaminopropyl)-N-methylsulphonyl-amino)-phenylamino]-1-(4-aminomethyl-phenyl)-methylidene}-2-indolinone]: 197 °C; for `COCCN(C)CC(=O)N(C)c1ccc(N/C(=C2\C(=O)Nc3ccccc32)c2ccccc2)cc1` [Example 372, (Z)-3-{1-[4-(N—(N-(2-methoxyethyl)-N-methyl-aminomethylcarbonyl)-N-methyl-amino)-phenylamino]-1-phenyl-methylidene}-2-indolinone]: 197 to 199 °C.
To `CN(C)CCN(C)C(=O)CN(c1cccc(N/C(=C2\C(=O)Nc3ccccc32)c2ccccc2)c1)S(C)(=O)=O` [Example 323, (Z)-3-{1-[3-(N—((N-(2-dimethylaminoethyl)-N-methyl-amino)-carbonylmethyl)-N-methylsulphonyl-amino)-phenylamino]-1-phenyl-methylidene}-2-indolinone] belongs 197 to 199 °C.
As for `CCCNCc1ccc(N/C(=C2\C(=O)Nc3ccc([N+](=O)[O-])cc32)c2ccccc2)cc1` [Example 162, (Z)-3-[1-(4-propylaminomethyl-phenylamino)-1-phenyl-methylidene]-5-nitro-2-indolinone], the melting point lay within 201 to 202 °C.
To `CCS(=O)(=O)N(CC(=O)N(C)CCN(C)C)c1ccc(N/C(=C2\C(=O)Nc3ccccc32)c2ccccc2)cc1` [Example 302, (Z)-3-{1-[4-(N—((N-(2-dimethylaminoethyl)-N-methyl-amino)-carbonylmethyl)-N-ethylsulphonyl-amino)-phenylamino]-1-phenyl-methylidene}-2-indolinone] belongs 170 to 172 °C.

The melting point is the temperature of the solid-liquid transition.
